± gives the expanded uncertainty stated by the source.
Legend:
[1] = 293.15 K; 101.3 kPa; Liquid; Vibrating tube method
[2] = refractive index (Na D-line) (dimensionless); conditions: 293.15 K; 101.33 kPa; Liquid; Standard Abbe refractometry

Row | Structure (SMILES) | mass density [1] | refractive index [2]
1 | CCO [ethanol] | 789.2 ± 1.6 kg/m3 | 1.3616 ± 0.0025
2 | CO [methanol] | 792.1 ± 1.6 kg/m3 | 1.3285 ± 0.0025
3 | CC(=O)OCC(C)C [2-methylpropyl ethanoate] | 873.4 ± 1.6 kg/m3 | 1.3902 ± 0.0025
